This note sets out measurements from PubChem BioAssay AID1996.

≈ marks a conversion by molar mass, not a printed value.

The conditions of this series: buffer; pH 7.4; 200.0 µM.
On to `O=C(CCC(=O)N1CCCC1)N1CCCC1`, for which the solubility (kinetic) is above 33.6 µg/mL.

In the case of `CC(c1ccccc1)n1c(CCCO)nc2ccccc21` (stereo unspecified), the solubility (kinetic) was above 42.1 µg/mL.

For `Cc1c(C(=O)c2ccc(Br)cc2)c(=O)n(C)c(=O)n1C`, the solubility (kinetic) is 50.1 µg/mL (≈ 149 µM).

`Cc1nc(SCC(=O)N2CCCCC2)c2c(C)c(C)sc2n1` gave a kinetic solubility of 33.7 µg/mL (≈ 100 µM).

Turning to `Cc1ccc(S(=O)(=O)NCc2ccco2)cc1C(N)=O`, the solubility (kinetic) was above 44.1 µg/mL.

Consider `CC(=O)Nc1ccc(NC(=O)CCCc2ccccc2)cc1`, for which the kinetic solubility came to 22.9 µg/mL (≈ 77.3 µM).

For `Cc1cccc(C)c1OCCN1CCOCC1.O=C(O)C(=O)O`, the solubility (kinetic) worked out at 42.1 µg/mL.

Consider `CC(=O)Nc1c(-c2ccccc2)nc2ccc(Cl)cn12`, for which the solubility (kinetic) is 42.7 µg/mL (≈ 149 µM).

Consider `O=C(O)CN(CCc1ccccc1)S(=O)(=O)c1ccccc1`, for which the kinetic solubility was above 47.9 µg/mL.

`O=C1c2ccc([N+](=O)[O-])cc2C(=O)N1c1ccc([N+](=O)[O-])cn1`: the solubility (kinetic) turned out to be 41.3 µg/mL (≈ 131 µM).

In the case of `CN(CC(=O)Nc1ccc(N2CCOCC2)cc1)C(=O)c1ccc(CS(C)(=O)=O)cc1`, the kinetic solubility is above 66.8 µg/mL.

Compound `NC(=NCCc1c[nH]c2ccccc12)NC(=O)c1ccc(F)cc1` gave a solubility (kinetic) above 48.7 µg/mL.

For `Cc1cccc(S(=O)(=O)c2c(C)cc(C)[nH]c2=O)c1`, the solubility (kinetic) was above 41.6 µg/mL.

As to `Cc1cc(Cl)ccc1NC(=S)NC1CCCC1`, the solubility (kinetic) amounted to 18.1 µg/mL (≈ 67.3 µM).

Turning to `Cc1ccc(C(=O)NCCc2c[nH]c3ccccc23)s1`, the solubility (kinetic) is above 42.7 µg/mL.

As to `N#C/C(=N\O)c1nc2ccccc2s1`, the kinetic solubility is above 30.5 µg/mL.

Turning to `CCC(C)c1c(O)nc(SCC(=O)N2CCCCC2)[nH]c1=O` (stereo unspecified), the solubility (kinetic) was above 48.8 µg/mL.

Turning to `O=C(CNC(=O)c1ccc(N2CCCC2=O)cc1)Nc1ccc(F)c(F)c1F`, the solubility (kinetic) was determined as 5.5 µg/mL (≈ 14.1 µM).

For `COc1ccc(-c2cc(-c3ccc(O)cc3)nc(N)c2C#N)cc1OC`, the solubility (kinetic) amounted to 1.7 µg/mL (≈ 4.89 µM).

`N/C(=N\OC(=O)c1cccs1)c1ccc(Cl)cc1` gave a solubility (kinetic) of 3.5 µg/mL (≈ 12.5 µM).

For `O=C(O)/C=C/c1cccnc1`, the kinetic solubility is above 22.4 µg/mL.

Turning to `C=CCC(CC=C)(C(N)=O)c1ccccc1`, the solubility (kinetic) amounted to 31.6 µg/mL (≈ 147 µM).

In the case of `Cc1ccc2c(c1)/C(=C/c1ccccc1C)C(=O)N2`, the kinetic solubility was determined as 2.8 µg/mL (≈ 11.2 µM).

`Cc1ccc(CC2CC(=O)N(c3ccc(C)cc3)C2=O)cc1` (stereo unspecified) yielded a solubility (kinetic) of 7.8 µg/mL (≈ 26.6 µM).

`C=C1C(C(=O)Nc2ccc(OC)cc2)C1C(=O)Nc1ccc(OC)cc1` (stereo unspecified): the kinetic solubility was 0.6 µg/mL (≈ 1.7 µM).

`Cc1ccc(S(=O)(=O)N2CCN(c3ccccc3)CC2)cc1C` registered a kinetic solubility below 0.4 µg/mL.

Consider `Cc1ccc(NC(=O)c2nsc(Cl)c2Cl)cc1`, for which the kinetic solubility is below 0.3 µg/mL.

The compound `O=C(CCc1ccccc1)NCc1ccc(F)cc1` displayed a kinetic solubility of 34.1 µg/mL (≈ 133 µM).

In the case of `O=C(CCSCc1ccccc1F)NCCc1ccccc1`, the solubility (kinetic) came to 17.8 µg/mL (≈ 56.1 µM).

With `Cc1sc2c(c1C)C(=O)/C(=C\Nc1ccccn1)S(=O)(=O)N2C`, the solubility (kinetic) was below 0.2 µg/mL.

`O=C(/C=C/c1ccc(Cl)c(Cl)c1)NCCCn1ccnc1` came in with a solubility (kinetic) of 38.8 µg/mL (≈ 120 µM).

As for `Oc1cc2c(cc1CN1CCN(c3ncccn3)CC1)OCO2`, the kinetic solubility was determined as 17.2 µg/mL (≈ 54.7 µM).

`CCOc1ccc(NC(=O)CSc2nncn2C)cc1` yielded a kinetic solubility above 43.9 µg/mL.

`Cc1ccc(C(=O)NC(C)C2CC3CCC2C3)c(C)c1` (stereo unspecified) displayed a solubility (kinetic) of 29.9 µg/mL (≈ 110 µM).

Compound `O=C(COC(=O)Cc1ccc(S(=O)(=O)N2CCOCC2)s1)Nc1ccc(F)cc1F` showed a solubility (kinetic) above 69.1 µg/mL.

`NC(=O)c1ccc(NC(=O)CCN2C(=O)c3ccccc3C2=O)cc1`: the solubility (kinetic) was determined as 10.6 µg/mL (≈ 31.4 µM).

`COc1ccc(C(=O)NCC2OCCc3ccccc32)cc1OC` (stereo unspecified) displayed a kinetic solubility of 11.8 µg/mL (≈ 36 µM).

`CCCN1CCN(CC(=O)Nc2nnc(CC)s2)CC1` came in with a solubility (kinetic) above 44.6 µg/mL.

In turn, `N/C(=N/OC(=O)c1cccc([N+](=O)[O-])c1)c1cccc([N+](=O)[O-])c1` gave a kinetic solubility of 0.5 µg/mL (≈ 1.51 µM).

As for `CCOc1ccc(NC(=S)NC(=O)/C=C/c2ccco2)cc1`, the solubility (kinetic) is below 0.3 µg/mL.

In turn, `Cc1cnc([N+](=O)[O-])n1CCOC(=O)NC(=O)c1ccc(F)cc1` displayed a solubility (kinetic) above 50.4 µg/mL.

The compound `CCc1ccc(C)[n+](CC(=O)c2cccs2)c1.[Cl-]` registered a kinetic solubility above 42.3 µg/mL.

`O=C1CCC([N+](=O)[O-])C(c2ccccc2F)N1` (stereo unspecified): the solubility (kinetic) is above 35.7 µg/mL.

`CCCCc1noc(-c2c(-c3ccccc3Cl)noc2C)n1` registered a kinetic solubility of 0.6 µg/mL (≈ 1.89 µM).

Turning to `COc1ccc2nc(C)c3c(c2c1)OC(C(C)(Cl)Br)C3` (stereo unspecified), the kinetic solubility was 4 µg/mL (≈ 11.2 µM).

`CCOC(=O)c1ccc(NC(=S)N2CCN(c3ccccn3)CC2)cc1` had a solubility (kinetic) of 1.2 µg/mL (≈ 3.24 µM).

For `Cc1onc(-c2c(Cl)cccc2Cl)c1NC(=O)NC1CCSC1` (stereo unspecified), the kinetic solubility is above 55.8 µg/mL.

On to `Cc1nnc(-c2ccc(N3CCOCC3)c([N+](=O)[O-])c2)o1`, for which the kinetic solubility was above 43.5 µg/mL.

With `CCOC(=O)Nc1ccc2c(c1)N(C(=O)CN)c1ccccc1CC2`, the kinetic solubility came out at 36.6 µg/mL (≈ 108 µM).

Compound `COc1cccc(NCCC(=O)c2cccc([N+](=O)[O-])c2)c1` came in with a kinetic solubility of 12.4 µg/mL (≈ 41.3 µM).

`CC(C)CNC(=O)C(=O)Nc1cc2c3c(c1)CCC(=O)N3CCC2` had a kinetic solubility of 5 µg/mL (≈ 15.2 µM).
